Tests used:
[1] = biological target: Induced myeloid leukemia cell differentiation protein Mcl-1 (Homo sapiens, UniProt Q07820); test: Time-resolved fluorescence energy transfer (TR-FRET) with MCL1
AMO1 = test: CellTiter-Glo Luminescent Cell Viability Assay ( MCL-1 dependent cell line AMO-1); type: functional, cell-based; settings: Homo sapiens
[2] = biological target: L-type Ca2+ channel (dihydropyridine site) (Rattus norvegicus, UniProt P22002+P27732+Q02485); test: Ca2+ channel (L, dihydropyridine site) Eurofins-Cerep binding assay; type: protein assay; design: incubation time 90 min, incubation temperature RT, ligand concentration 0.1 nM; settings: rat cerebral cortex, probe [3H]nitrendipine (0.1 nM), compound concentration 10 uM, read-out: % Inhibition of Control Specific Binding (Mean n=2)
[3] = biological target: Calcium/calmodulin-dependent protein kinase type II subunit gamma (Homo sapiens) (UniProt Q13555); settings: Compound concentration 1000.0 nM
[4] = test system: Epidermal growth factor receptor (Homo sapiens), P00533 [L861Q]; settings: Compound concentration 1000.0 nM
[5] = biological target: Eukaryotic translation initiation factor 2-alpha kinase 1 (Homo sapiens) (UniProt Q9BQI3); settings: Compound concentration 1000.0 nM
[6] = biological target: Serine/threonine-protein kinase PAK 3 (Homo sapiens) (UniProt O75914); settings: Compound concentration 1000.0 nM
[7] = biological target: Phosphatidylinositol 4,5-bisphosphate 3-kinase catalytic subunit delta isoform (Homo sapiens) (UniProt O00329); settings: Compound concentration 1000.0 nM
[8] = biological target: Serine/threonine-protein kinase pim-1 (Homo sapiens) (UniProt P11309); settings: Compound concentration 1000.0 nM
[9] = biological target: Phosphatidylinositol 4-phosphate 5-kinase type-1 gamma (Homo sapiens) (UniProt O60331); settings: Compound concentration 1000.0 nM
[10] = biological target: Serine/threonine-protein kinase D3 (Homo sapiens) (UniProt O94806); settings: Compound concentration 1000.0 nM
[11] = biological target: Serine/threonine-protein kinase SIK1 (Homo sapiens) (UniProt P57059); settings: Compound concentration 1000.0 nM
[12] = biological target: Serine/threonine-protein kinase TBK1 (Homo sapiens) (UniProt Q9UHD2); settings: Compound concentration 1000.0 nM
[13] = biological target: T1, 5-hydroxytryptamine receptor 1A (Homo sapiens) (UniProt P08908); settings: Compound concentration 10.0 uM
T1 sequence (whole entry): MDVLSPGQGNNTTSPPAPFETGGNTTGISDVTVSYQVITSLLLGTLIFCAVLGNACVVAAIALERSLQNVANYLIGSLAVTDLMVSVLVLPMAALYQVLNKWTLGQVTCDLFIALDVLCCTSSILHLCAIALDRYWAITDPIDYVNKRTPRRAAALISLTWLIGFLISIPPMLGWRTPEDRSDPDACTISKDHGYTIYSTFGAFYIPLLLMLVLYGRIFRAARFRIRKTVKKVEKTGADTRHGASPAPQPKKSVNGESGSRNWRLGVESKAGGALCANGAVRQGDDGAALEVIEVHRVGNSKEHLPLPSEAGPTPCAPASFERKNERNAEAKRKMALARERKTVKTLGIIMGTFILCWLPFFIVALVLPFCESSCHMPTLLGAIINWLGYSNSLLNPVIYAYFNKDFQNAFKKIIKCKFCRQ

[14] = biological target: 5-hydroxytryptamine receptor 6 (Homo sapiens) (UniProt P50406); settings: Compound concentration 10.0 uM
[15] = biological target: 5-hydroxytryptamine receptor 7 (Homo sapiens) (UniProt P34969); settings: Compound concentration 10.0 uM
[16] = biological target: D(4) dopamine receptor (Homo sapiens) (UniProt P21917); settings: Compound concentration 10.0 uM
[17] = biological target: Sodium-dependent noradrenaline transporter (Homo sapiens) (UniProt P23975); settings: Compound concentration 10.0 uM
[18] = biological target: Beta-2 adrenergic receptor (Homo sapiens) (UniProt P07550); settings: Compound concentration 10.0 uM
[19] = biological target: Beta-3 adrenergic receptor (Homo sapiens) (UniProt P13945); settings: Compound concentration 10.0 uM
[20] = biological target: Alpha-1D adrenergic receptor (Homo sapiens) (UniProt P25100); settings: Compound concentration 10.0 uM
D(3) dopamine receptor = D(3) dopamine receptor (Homo sapiens, UniProt P35462); test: GPCRScan assay: inhibition of D3; design: radioligand conc. used [nm] 0.5 – 1.8, parental cells HEKT
[21] = biological target: Sodium-dependent dopamine transporter (Homo sapiens, UniProt Q01959); test: GPCRScan assay: inhibition of DAT; design: radioligand conc. used [nm] 3.6 – 16.0, parental cells stable HEK
[22] = biological target: Alpha-1D adrenergic receptor (Homo sapiens, UniProt P25100); test: GPCRScan assay: inhibition of Alpha1D; design: radioligand conc. used [nm] 0.3 – 1.0, parental cells stable
RS4-11 = test: CellTiter-Glo Luminescent Cell Viability Assay with RS4-11 cells (BCL-2 dependent cell line); type: functional, cell-based; settings: Homo sapiens
[23] = biological target: Kappa-type opioid receptor (Homo sapiens) (UniProt P41145); settings: Compound concentration 10.0 uM

Chain of Calcium/calmodulin-dependent protein kinase type II subunit gamma (Homo sapiens) (Q13555 whole entry): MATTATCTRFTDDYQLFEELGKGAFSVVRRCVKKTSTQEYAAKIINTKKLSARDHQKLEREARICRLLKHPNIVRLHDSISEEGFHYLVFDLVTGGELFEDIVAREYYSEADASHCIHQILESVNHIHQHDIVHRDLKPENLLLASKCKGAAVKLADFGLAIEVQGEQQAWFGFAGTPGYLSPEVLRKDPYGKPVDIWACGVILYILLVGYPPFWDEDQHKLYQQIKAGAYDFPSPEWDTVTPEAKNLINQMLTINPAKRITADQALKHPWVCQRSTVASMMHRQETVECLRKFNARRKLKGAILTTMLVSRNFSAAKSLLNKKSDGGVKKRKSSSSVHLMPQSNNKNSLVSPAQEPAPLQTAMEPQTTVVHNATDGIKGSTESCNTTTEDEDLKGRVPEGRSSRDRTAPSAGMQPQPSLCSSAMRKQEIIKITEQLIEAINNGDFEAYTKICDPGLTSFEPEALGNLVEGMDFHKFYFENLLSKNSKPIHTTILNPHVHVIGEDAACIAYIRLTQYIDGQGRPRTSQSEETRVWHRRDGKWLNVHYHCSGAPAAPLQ
Chain of Eukaryotic translation initiation factor 2-alpha kinase 1 (Homo sapiens) (Q9BQI3 whole entry): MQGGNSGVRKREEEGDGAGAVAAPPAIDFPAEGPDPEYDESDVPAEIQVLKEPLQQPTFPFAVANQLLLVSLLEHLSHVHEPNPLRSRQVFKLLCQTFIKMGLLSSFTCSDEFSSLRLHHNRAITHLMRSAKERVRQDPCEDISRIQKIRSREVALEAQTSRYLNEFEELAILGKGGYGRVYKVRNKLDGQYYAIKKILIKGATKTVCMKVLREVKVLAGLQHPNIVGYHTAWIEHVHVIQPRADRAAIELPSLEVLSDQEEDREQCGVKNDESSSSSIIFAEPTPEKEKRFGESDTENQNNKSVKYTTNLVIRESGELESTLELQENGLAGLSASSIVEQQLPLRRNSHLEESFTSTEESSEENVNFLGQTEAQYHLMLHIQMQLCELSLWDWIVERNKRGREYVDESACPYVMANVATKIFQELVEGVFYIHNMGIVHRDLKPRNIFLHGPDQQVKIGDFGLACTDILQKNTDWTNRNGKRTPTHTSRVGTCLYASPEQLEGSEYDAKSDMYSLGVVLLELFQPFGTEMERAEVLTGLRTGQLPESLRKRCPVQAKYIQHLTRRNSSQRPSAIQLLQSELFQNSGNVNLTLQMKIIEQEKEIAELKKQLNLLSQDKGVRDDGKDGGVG
Chain of Serine/threonine-protein kinase SIK1 (Homo sapiens) (P57059 whole entry): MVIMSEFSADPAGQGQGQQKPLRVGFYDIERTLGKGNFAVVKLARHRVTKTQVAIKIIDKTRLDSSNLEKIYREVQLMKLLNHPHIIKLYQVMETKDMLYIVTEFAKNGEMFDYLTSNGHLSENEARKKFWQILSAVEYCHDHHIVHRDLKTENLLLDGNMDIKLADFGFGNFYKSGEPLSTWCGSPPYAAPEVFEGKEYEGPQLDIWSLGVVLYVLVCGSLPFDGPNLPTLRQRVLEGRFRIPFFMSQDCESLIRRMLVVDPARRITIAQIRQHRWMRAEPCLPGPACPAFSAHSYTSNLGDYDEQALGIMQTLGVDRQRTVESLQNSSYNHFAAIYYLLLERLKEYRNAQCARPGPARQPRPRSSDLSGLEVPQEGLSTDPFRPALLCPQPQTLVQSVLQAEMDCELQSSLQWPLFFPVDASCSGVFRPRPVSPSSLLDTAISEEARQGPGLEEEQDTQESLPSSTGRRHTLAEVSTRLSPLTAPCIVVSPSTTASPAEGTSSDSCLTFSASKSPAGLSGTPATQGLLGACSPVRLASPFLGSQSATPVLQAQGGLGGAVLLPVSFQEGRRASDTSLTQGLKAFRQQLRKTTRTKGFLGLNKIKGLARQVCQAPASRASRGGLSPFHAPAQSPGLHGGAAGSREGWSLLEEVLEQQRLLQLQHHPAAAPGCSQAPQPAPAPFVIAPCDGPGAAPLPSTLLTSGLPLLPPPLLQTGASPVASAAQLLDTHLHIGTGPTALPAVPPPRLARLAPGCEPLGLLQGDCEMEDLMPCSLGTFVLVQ
Chain of Serine/threonine-protein kinase TBK1 (Homo sapiens) (Q9UHD2 whole entry): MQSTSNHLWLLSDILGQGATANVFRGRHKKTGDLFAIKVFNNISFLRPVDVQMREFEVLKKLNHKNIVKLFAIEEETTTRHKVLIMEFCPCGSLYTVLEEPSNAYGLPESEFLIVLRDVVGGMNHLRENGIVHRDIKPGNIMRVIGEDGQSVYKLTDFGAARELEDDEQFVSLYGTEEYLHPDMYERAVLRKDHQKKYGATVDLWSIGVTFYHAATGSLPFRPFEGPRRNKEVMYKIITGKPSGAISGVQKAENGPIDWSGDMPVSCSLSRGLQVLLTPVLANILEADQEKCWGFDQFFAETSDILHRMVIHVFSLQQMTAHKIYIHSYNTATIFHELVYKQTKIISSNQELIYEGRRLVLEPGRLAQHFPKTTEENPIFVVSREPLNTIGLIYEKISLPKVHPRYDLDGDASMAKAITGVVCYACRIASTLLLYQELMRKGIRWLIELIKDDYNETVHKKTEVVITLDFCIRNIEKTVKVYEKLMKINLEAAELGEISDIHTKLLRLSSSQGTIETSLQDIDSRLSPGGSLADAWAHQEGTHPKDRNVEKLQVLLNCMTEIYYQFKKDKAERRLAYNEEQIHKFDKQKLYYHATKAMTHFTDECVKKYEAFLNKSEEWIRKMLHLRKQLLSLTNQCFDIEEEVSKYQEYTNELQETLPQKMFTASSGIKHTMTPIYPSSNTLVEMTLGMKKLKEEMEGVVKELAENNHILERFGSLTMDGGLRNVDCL
Chain of Serine/threonine-protein kinase PAK 3 (Homo sapiens) (O75914 whole entry, looked up, canonical isoform): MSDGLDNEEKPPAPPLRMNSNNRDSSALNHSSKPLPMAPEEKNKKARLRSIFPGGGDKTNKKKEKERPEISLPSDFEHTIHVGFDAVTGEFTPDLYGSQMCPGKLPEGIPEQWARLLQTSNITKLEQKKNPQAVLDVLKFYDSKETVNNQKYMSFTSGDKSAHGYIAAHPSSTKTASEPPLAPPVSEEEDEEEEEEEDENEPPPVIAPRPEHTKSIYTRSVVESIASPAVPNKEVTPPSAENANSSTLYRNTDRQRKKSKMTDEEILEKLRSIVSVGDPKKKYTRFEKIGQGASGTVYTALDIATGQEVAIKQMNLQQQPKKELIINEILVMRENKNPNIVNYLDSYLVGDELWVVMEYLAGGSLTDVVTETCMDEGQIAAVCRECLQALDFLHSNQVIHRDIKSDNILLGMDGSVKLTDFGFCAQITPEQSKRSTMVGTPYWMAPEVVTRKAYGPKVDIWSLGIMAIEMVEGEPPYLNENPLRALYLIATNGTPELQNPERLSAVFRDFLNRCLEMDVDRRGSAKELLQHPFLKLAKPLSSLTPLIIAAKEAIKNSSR
Chain of Phosphatidylinositol 4-phosphate 5-kinase type-1 gamma (Homo sapiens) (O60331 whole entry): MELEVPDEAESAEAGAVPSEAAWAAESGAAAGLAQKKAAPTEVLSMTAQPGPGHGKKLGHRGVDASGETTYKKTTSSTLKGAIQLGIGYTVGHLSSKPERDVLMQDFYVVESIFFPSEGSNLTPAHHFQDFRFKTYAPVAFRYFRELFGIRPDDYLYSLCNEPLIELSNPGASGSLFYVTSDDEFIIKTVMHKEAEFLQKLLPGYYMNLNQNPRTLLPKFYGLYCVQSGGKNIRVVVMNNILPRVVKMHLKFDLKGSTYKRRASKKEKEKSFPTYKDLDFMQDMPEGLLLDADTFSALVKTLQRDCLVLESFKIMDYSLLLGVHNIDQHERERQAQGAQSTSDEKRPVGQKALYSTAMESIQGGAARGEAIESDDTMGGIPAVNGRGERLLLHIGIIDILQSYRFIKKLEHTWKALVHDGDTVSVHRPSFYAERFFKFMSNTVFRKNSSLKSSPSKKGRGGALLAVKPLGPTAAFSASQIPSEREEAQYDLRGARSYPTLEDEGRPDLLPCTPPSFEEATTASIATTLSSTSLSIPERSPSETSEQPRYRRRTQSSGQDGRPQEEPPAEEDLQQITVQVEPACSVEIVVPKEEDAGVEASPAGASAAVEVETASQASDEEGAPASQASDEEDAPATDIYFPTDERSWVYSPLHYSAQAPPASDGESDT
Chain of Sodium-dependent dopamine transporter (Q01959 whole entry): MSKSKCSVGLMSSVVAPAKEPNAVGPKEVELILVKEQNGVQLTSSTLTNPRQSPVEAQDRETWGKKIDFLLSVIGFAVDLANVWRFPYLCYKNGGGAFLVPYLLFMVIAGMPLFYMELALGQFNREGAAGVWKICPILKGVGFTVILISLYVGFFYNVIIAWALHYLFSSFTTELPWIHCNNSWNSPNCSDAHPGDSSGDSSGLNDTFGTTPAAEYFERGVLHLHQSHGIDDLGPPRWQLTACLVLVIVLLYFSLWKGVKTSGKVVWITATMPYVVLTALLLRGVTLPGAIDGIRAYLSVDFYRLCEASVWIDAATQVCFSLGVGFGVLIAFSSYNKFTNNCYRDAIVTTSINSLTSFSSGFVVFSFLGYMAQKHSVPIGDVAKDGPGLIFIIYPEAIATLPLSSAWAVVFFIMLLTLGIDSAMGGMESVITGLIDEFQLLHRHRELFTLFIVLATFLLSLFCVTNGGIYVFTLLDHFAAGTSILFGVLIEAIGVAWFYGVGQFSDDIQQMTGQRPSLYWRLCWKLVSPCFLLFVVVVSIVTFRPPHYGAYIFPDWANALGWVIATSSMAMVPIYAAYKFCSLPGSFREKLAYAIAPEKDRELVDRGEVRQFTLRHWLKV
Chain of Serine/threonine-protein kinase pim-1 (Homo sapiens) (P11309 whole entry, looked up): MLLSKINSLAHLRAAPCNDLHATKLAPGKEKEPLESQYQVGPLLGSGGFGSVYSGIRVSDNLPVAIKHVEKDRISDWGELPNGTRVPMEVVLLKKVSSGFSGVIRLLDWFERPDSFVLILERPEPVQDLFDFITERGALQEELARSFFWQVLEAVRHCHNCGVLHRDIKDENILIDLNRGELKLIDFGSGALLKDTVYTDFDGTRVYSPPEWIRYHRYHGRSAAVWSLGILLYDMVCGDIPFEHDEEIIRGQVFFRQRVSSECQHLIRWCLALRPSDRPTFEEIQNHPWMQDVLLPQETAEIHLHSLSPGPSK

SMILES | inhibition at 90 min, 10 µM [2] [%] | residual activity [3] [%] | residual activity [4] [%] | residual activity [5] [%] | residual activity [6] [%] | residual activity [7] [%] | residual activity [8] [%] | residual activity [9] [%] | residual activity [10] [%] | residual activity [11] [%] | residual activity [12] [%] | other results
CO[C@H]1CC[C@H](CNc2ccc(S(=O)(=O)NC(=O)c3ccc(N4CCN(CC5=C(c6ccc(Cl)cc6)CC(C)(C)CC5)CC4)cc3Oc3cnc4[nH]ccc4c3)cc2[N+](=O)[O-])CC1 [A-1211212] | 63.2 | 75 | 70 | 100 | 64 | 75 | 72 | 100 | 100 | 90 | 60 | IC50 [1]: 2.05 µM (not active); EC50 (AMO1): > 1 µM (not active); inhibition [13]: -7.27%; inhibition [14]: -8.56%; inhibition [15]: -7.24%; inhibition [16]: -4.72%; inhibition [17]: 39.5%; inhibition [18]: 21.3%; inhibition [19]: -6.65%; inhibition [20]: -9.01%
O=C(NS(=O)(=O)c1ccc(NCC2CCOCC2)c([N+](=O)[O-])c1)c1ccc(N2CCN(Cc3ccc(C(F)(F)F)cc3-c3ccc(Cl)cc3)CC2)cc1Oc1cnc2[nH]ccc2c1 [A-1210227] | 7.3 | 88 | 93 | 84 | 77 | 60 | 92 | 100 | 100 | 90 | 74 | Ki (D(3) dopamine receptor): 10 µM; Ki ([21]; read-out: Ki): 9.8 µM; Ki ([21]; read-out: pKi (converted)): 9.77 µM; Ki [22]: 10 µM; EC50 (RS4-11): > 5 µM (not active); inhibition [23]: -0.08%
